The assay deals with T1, calf thymus DNA topoisomerase I (Bos taurus, UniProt F1MN93).
T1 construct: Calf thymus DNA topoisomerases were purchased from TopoGen Inc., Columbus, Ohio; purchased TopoGen Inc., Columbus, Ohio; host or cells: calf thymus (tissue-derived enzyme)
T1 sequence (F1MN93 1-767): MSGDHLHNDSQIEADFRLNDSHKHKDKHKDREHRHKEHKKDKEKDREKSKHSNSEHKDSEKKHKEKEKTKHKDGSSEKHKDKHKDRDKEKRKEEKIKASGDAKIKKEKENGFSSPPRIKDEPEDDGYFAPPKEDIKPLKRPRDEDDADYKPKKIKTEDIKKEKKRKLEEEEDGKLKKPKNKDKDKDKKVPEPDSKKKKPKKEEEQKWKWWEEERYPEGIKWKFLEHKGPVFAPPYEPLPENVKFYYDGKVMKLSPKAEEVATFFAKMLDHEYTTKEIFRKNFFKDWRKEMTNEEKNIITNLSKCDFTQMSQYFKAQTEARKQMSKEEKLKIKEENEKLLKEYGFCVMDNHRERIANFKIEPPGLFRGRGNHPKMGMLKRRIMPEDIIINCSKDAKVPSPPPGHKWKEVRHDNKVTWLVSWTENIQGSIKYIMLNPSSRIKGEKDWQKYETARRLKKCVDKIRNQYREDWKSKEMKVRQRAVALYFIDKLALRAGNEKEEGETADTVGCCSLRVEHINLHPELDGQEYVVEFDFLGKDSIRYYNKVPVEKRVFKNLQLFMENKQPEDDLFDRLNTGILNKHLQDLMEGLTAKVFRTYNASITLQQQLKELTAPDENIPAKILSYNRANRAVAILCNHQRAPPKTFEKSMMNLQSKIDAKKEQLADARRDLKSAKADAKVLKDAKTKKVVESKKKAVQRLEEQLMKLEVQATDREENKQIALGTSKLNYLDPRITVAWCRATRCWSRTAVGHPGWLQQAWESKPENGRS
Description: In vitro topoisomerase-DNA cleavage assay, topoisomerase I. The class given is biochemical. An excerpt:
Calf thymus DNA topoisomerases were purchased from TopoGen Inc., Columbus, Ohio. Tritium-labeled thymidine (60-90 ci/mmol) for labeling cellular DNA to measure protein-DNA complexes and αP^32-labeled deoxycytidine triphosphate (>3000 ci/mmol) were obtained from ICN Biochemicals Inc., Irvine, Calif. The latter radiochemical was used with a T4-DNA polymerase polymerase-labeling system from BRL Inc., Gaithersburg, Md., to prepare P^32-plasmid DNA for in vitro cleavage assays. Tissue culture reagents were purchased from Sigma Chemical Co., St. Louis, Mo., and Gibco-BRL Inc. All other chemicals were reagent grade.
The detailed method used to measure stimulation of cleavable complexes in vitro is described in K. Bastow et al., Planta Med. 59:195 (1993).. Briefly, incubated cleavage reactions containing one nanogram of P^32 end-labeled linearized PBR322 DNA, one unit of enzyme and test compound were divided equally for analysis. One portion was prepared for gel electrophoresis with subsequent autoradiography and protein-DNA complexes in the remaining sample were analyzed using the potassium-SDS precipitation method and scintillation spectrometry.

Turning to `CC[C@@]1(O)C(=O)OCc2c1cc1n(c2=O)Cc2c-1nc1ccccc1c2/C=N/c1ccccc1N[C@@H]1c2cc3c(cc2[C@@H](c2cc(OC)c(O)c(OC)c2)[C@H]2C(=O)OC[C@@H]21)OCO3` [Compound S-2], for the setting “higher test concentrations”, the “stimulation of topoisomerase I cleavage activity, dose behaviour” value is reported as “not inhibited at higher test concentrations”. Also, the “cleavable complex formation with topoisomerase I” value (ten micromolar, FIG. 1A) was “induced cleavable complexes”. The “topoisomerase I cleavable complex activity relative to unconjugated components” value (ten micromolar, S-1 vs 3, 4a, S-2 vs 3, 4b) is on record as “reduced about two-fold”.

Values taken from patent publication US6420377B1, “Covalent conjugates of topoisomerase I and topoisomerase II inhibitors” (priority 1997, dated 2002).
